Measurements from patent EP0031561B1, “A rectally administered suppository comprising a drug and an adjuvant” (Merck & Co., Inc., priority 1979, dated 1981).
Each block holds one compound with its values, some of them ahead of it.

Experiments:
[1] = dog, in vivo
Description: Four male beagle dogs weighing 9.5-11 kg are used and are fasted for two days prior to experimentation. Witepsol H-15 is used as an excipient to prepare the suppository formulation of cefmetazole. Microenema formulations are prepared with aqueous 0.02M phosphate buffer with a final pH of 7.4. Either a 1 g suppository or a 1 ml microenema is given to each dog. The formulations may contain varying amounts of adjuvant. Blood samples are taken from the foreleg vein at predetermined sampling times after dosing. Blood samples are heparinized and centrifuged at 3,000 rpm for 10 minutes. The concentration of cefmetazole in the plasma of the dogs is analyzed as a function of time using plasma aliquots for the assay of cefmetazole.

[2] = in situ perfusion method of the rectum (perfusate recirculated through the rat rectum; drug remaining in the perfusate)
Description: In this experiment, the amount of remaining theophylline, originally at a concentration of about 200 mg/ml, in aqueous solution and continually recirculated or perfused to the rectal compartment of the rat, at the end of one hour, is shown as the lower plot for studies carried out in the presence of 0.2% sodium salicylate, is shown as the upper plot.
A second cannula is inserted through the anus 1 cm inside the rectum and secured by ligation. Thus, about 2 cm of the rectum is exposed to the perfusate. The perfustate (6 ml) is circulated at a rate of 2 ml/min at 38°C. As perfustate, 1/15 M-phosphate buffer solutions are used and the ionic strength of the perfusate is adjusted to 0.75 with sodiumchloride as necessary. […] The amount of drug remaining in the perfusate is analyzed as a function of time by appropriate methods, e.g., by high-pressure liquid chromatography.
A second cannula is inserted through the anus 1 cm. inside the rectum and secured by ligation. Thus, about 2 cm of the rectum is exposed to the perfusate. The perfusate (6 ml) is circulated at a rate of 2 ml/min at 38°C. As perfusate, 1/15 M-phosphate buffer solutions are used and the ionic strength of the perfusate is adjusted to 0.75 with sodium chloride as necessary. […] The amount of drug remaining in the perfusate is analyzed as a function of time by appropriate methods, e.g. by high-pressure liquid chromatography.

bioavailability, suppository formulations versus microenema formulations [1]: greater bioavailability
rectal absorption of cefmetazole [1]: significantly enhanced
SMILES: CO[C@@]1(NC(=O)CSCC#N)C(=O)N2C(C(=O)O)=C(CSc3nnnn3C)CS[C@@H]21 [cefmetazole, Cefmetazole]

SMILES: O=C(O)c1cc(O)ccc1O [gentisic acid]
adjuvant effect on the rectal absorption ([2]; Figure 4 (theophylline)): evident

SMILES: Cn1c(=O)c2[nH]cnc2n(C)c1=O [theophylline, 3,7-Dihydro-1,3-dimethyl-1H-purine-2,6-dione]
effect of the salicylate on the rate of absorption of theophylline from the rectal compartment ([2]; Figure 1, theophylline about 200 mg/ml aqueous solution, amount remaining at end of one hour, 0.2% sodium salicylate, effect greatest below pH 5.5 and above pH 7.5): marked effect
